Reference: US20250073255A1, “USE OF FA-TYPE LIPID COMPOUNDS IN PREPARATION OF NUCLEIC ACID DELIVERY REAGENT AND RELATED PRODUCT” (BEIJING BAISHIKANG PHARMACEUTICAL TECHNOLOGY (BSJPHARMA) …, priority 2021, published 2025)

Tested on: C57BL/6 male mice
Test: In vivo delivery study of lipid nucleic acid mixture (oral gavage, RT-qPCR of PGY-sRNA-26 in tissues)
Parameters: species or system mouse
Conditions: 100 μg lipid:10 nmol PGY-sRNA-26, sampled after 12 hours; for oral delivery of single-stranded sRNA nucleic acids into mouse heart tissue: vs free uptake group; for oral delivery of single-stranded sRNA nucleic acids into mouse intestinal tissue: intestine; for oral delivery of single-stranded sRNA nucleic acids into mouse pancreatic tissue: pancreas
In short: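 Stem-loop RT and SYBR qPCR, normalized to U6, measured PGY-sRNA-26 in blood and organs 12 h after gavage. Dosing was 10 nmol sRNA with 100 μg lipid, pre-mixed and heated 15 min at 90 °C, in 12-h-fasted mice, against saline and free-sRNA groups.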

CCCCC/C=C\C/C=C\C/C=C\C/C=C\CCCC(=O)Nc1ccc(S(N)(=O)=O)cc1 [Lipid 826, (5Z,8Z,11Z,14Z)-N-(4-sulfamoylphenyl)icosa-5,8,11,14-tetraenamide]
can effectively orally deliver: oral delivery of single-stranded sRNA nucleic acids into mouse blood | oral delivery of single-stranded sRNA nucleic acids into mouse brain tissue | oral delivery of single-stranded sRNA nucleic acids into mouse femur | oral delivery of single-stranded sRNA nucleic acids into mouse heart tissue | oral delivery of single-stranded sRNA nucleic acids into mouse intestinal tissue | oral delivery of single-stranded sRNA nucleic acids into mouse kidney tissue | oral delivery of single-stranded sRNA nucleic acids into mouse liver tissue | oral delivery of single-stranded sRNA nucleic acids into mouse lung tissue | oral delivery of single-stranded sRNA nucleic acids into mouse pancreatic tissue | oral delivery of single-stranded sRNA nucleic acids into mouse spleen tissue | oral delivery of single-stranded sRNA nucleic acids into mouse stomach tissue

CCCCCC/C=C\CCCCCCCC(=O)OC(CC)C(C)CCC (stereo not shown) [Lipid 827, 4-methylheptan-3-yl (Z)-hexadec-9-enoate]
can effectively orally deliver: oral delivery of single-stranded sRNA nucleic acids into mouse blood | oral delivery of single-stranded sRNA nucleic acids into mouse brain tissue | oral delivery of single-stranded sRNA nucleic acids into mouse femur | oral delivery of single-stranded sRNA nucleic acids into mouse heart tissue | oral delivery of single-stranded sRNA nucleic acids into mouse intestinal tissue | oral delivery of single-stranded sRNA nucleic acids into mouse kidney tissue | oral delivery of single-stranded sRNA nucleic acids into mouse liver tissue | oral delivery of single-stranded sRNA nucleic acids into mouse lung tissue | oral delivery of single-stranded sRNA nucleic acids into mouse pancreatic tissue | oral delivery of single-stranded sRNA nucleic acids into mouse spleen tissue | oral delivery of single-stranded sRNA nucleic acids into mouse stomach tissue

CCCCC/C=C\C/C=C\CCCCCCCC(=O)OC(CC)C(C)CCC (stereo not shown) [Lipid 828, 4-methylheptan-3-yl (9Z,12Z)-octadeca-9,12-dienoate]
can effectively orally deliver: oral delivery of single-stranded sRNA nucleic acids into mouse blood | oral delivery of single-stranded sRNA nucleic acids into mouse brain tissue | oral delivery of single-stranded sRNA nucleic acids into mouse femur | oral delivery of single-stranded sRNA nucleic acids into mouse heart tissue | oral delivery of single-stranded sRNA nucleic acids into mouse intestinal tissue | oral delivery of single-stranded sRNA nucleic acids into mouse kidney tissue | oral delivery of single-stranded sRNA nucleic acids into mouse liver tissue | oral delivery of single-stranded sRNA nucleic acids into mouse lung tissue | oral delivery of single-stranded sRNA nucleic acids into mouse pancreatic tissue | oral delivery of single-stranded sRNA nucleic acids into mouse spleen tissue | oral delivery of single-stranded sRNA nucleic acids into mouse stomach tissue

CCCCCCCCCCCCCC(=O)OCCCCCCCCCCCCCCC(C)C [Lipid 829, 15-methylhexadecyl tetradecanoate]
can effectively orally deliver: oral delivery of single-stranded sRNA nucleic acids into mouse blood | oral delivery of single-stranded sRNA nucleic acids into mouse brain tissue | oral delivery of single-stranded sRNA nucleic acids into mouse femur | oral delivery of single-stranded sRNA nucleic acids into mouse heart tissue | oral delivery of single-stranded sRNA nucleic acids into mouse intestinal tissue | oral delivery of single-stranded sRNA nucleic acids into mouse kidney tissue | oral delivery of single-stranded sRNA nucleic acids into mouse liver tissue | oral delivery of single-stranded sRNA nucleic acids into mouse lung tissue | oral delivery of single-stranded sRNA nucleic acids into mouse pancreatic tissue | oral delivery of single-stranded sRNA nucleic acids into mouse spleen tissue | oral delivery of single-stranded sRNA nucleic acids into mouse stomach tissue

CCCCCCCCCCCCCCCCCC(=O)N[C@@H](Cc1ccccc1)C(=O)O [Lipid 830, (2S)-2-(octadecanoylamino)-3-phenylpropanoic acid]
can effectively orally deliver: oral delivery of single-stranded sRNA nucleic acids into mouse blood | oral delivery of single-stranded sRNA nucleic acids into mouse brain tissue | oral delivery of single-stranded sRNA nucleic acids into mouse femur | oral delivery of single-stranded sRNA nucleic acids into mouse heart tissue | oral delivery of single-stranded sRNA nucleic acids into mouse intestinal tissue | oral delivery of single-stranded sRNA nucleic acids into mouse kidney tissue | oral delivery of single-stranded sRNA nucleic acids into mouse liver tissue | oral delivery of single-stranded sRNA nucleic acids into mouse lung tissue | oral delivery of single-stranded sRNA nucleic acids into mouse pancreatic tissue | oral delivery of single-stranded sRNA nucleic acids into mouse spleen tissue | oral delivery of single-stranded sRNA nucleic acids into mouse stomach tissue
